According to patent US9079886B2, “Substituted triazole derivatives as gamma secretase modulators” (Janssen Pharmaceuticals, Inc., priority 2010, dated 2015):
Read-outs that look alike come from different tables or passages of the source.

What was measured:
[1] = Central brain availability: compound levels in plasma and brain; type: in vivo; details: mouse, dose 30 mg/kg oral dosing
Method: (§1) A typical protocol for measuring Aβ42 lowering in vivo is shown but it is only one of many variations that could be used to optimize the levels of detectable Aβ. For example, Aβ42 lowering compounds were formulated in 20% of Captisol® (a sulfobutyl ether of β-cyclodextrin) in water or 20% hydroxypropyl β cyclodextrin. The Aβ42 lowering agents were administered as a single oral dose or by any acceptable route of administration to overnight fasted animals. After 4 h, the animals were sacrificed and Aβ42 levels were analysed.
(§2) Blood was collected by decapitation and exsanguinations in EDTA-treated collection tubes. Blood was centrifuged at 1900 g for 10 minutes (min) at 4° C. and the plasma recovered and flash frozen for later analysis. The brain was removed from the cranium and hindbrain. The cerebellum was removed and the left and right hemisphere were separated. The left hemisphere was stored at −18° C. for quantitative analysis of test compound levels. The right hemisphere was rinsed with phosphate-buffered saline (PBS) buffer and immediately frozen on dry ice and stored at −80° C. until homogenization for biochemical assays.
Also the central brain availability of Compounds 3, 5, 10 and A were measured:
The results are shown in Table 5 (dose 30 mg/kg oral dosing; 4 hours): […]

[2] = Liver metabolic stability assay, human liver microsomes; type: in vitro ADME; details: 1 μM substrate, 1 mg/ml protein, 37° C., 15 minutes
Method: (§3) Each compound was spiked into a suspension of liver microsomes prepared from the species under investigation, at a final substrate concentration of 1 μM, and a protein concentration of 1 mg/ml, and pre-incubated at 37° C. for 11 minutes. The incubation also contains a NADPH (3-nicotinamide adenine dinucleotide phosphate, reduced) regenerating system. After this preincubation period, NADP (β-nicotinamide adenine dinucleotide phosphate) was added to the active incubations, and the incubations maintained at 37° C. for 15 minutes, during which period metabolism can take place. After 15 minutes, 2 volumes of DMSO (dimethylsulfoxide) were added to each active incubation to inactivate and precipitate proteins. Control incubations were not preincubated at 37° C., but instead were quenched by the addition of DMSO prior to the addition of NADP. Following centrifugation, the supernatant from each incubation was transferred to a separate analysis plate, and analysed for the concentration of the parent compound by LC/MS/MS using a compound-specific LC/MS/MS method and a generic HPLC gradient. The turnover of the parent compound is expressed as the % reduction in concentration in the analyte samples compared to that in the control incubations. Each incubation is performed in triplicate.

[3] = Liver metabolic stability assay, mouse liver microsomes; type: in vitro ADME; details: 1 μM substrate, 1 mg/ml protein, 37° C., 15 minutes
Method: as §3

[4] = test system: Aβ42 and Aβtotal in the soluble fraction of brain homogenates; experiment: In vivo Aβ42 lowering: brain soluble Aβ42 and Aβtotal by ELISA after a single oral dose; design: species or system mouse; details: Mus musculus, po, 4 h, dose 30 mg/kg oral dosing, 4 h after dosing
Description: To determine whether acute administration of an Aβ42 lowering agent would reduce Aβ42 levels in vivo, non-transgenic rodents, e.g. mice or rats were used. Animals treated with the Aβ42 lowering agent were examined and compared to those untreated or treated with vehicle and brain levels of soluble Aβ42 and total A13 were quantitated by standard techniques, for example, using ELISA. Treatment periods varied from hours (h) to days and were adjusted based on the results of the Aβ42 lowering once a time course of onset of effect could be established.
as §1, §2
Mouse brains from non-transgenic animals were resuspended in 8 volumes of 0.4% DEA (diethylamine)/50 mM NaCl containing protease inhibitors (Roche-11873580001 or 04693159001) per gram of tissue, e.g. for 0.158 g brain, add 1.264 ml of 0.4% DEA. All samples were homogenized in the FastPrep-24 system (MP Biomedicals) using lysing matrix D (MPBio #6913-100) at 6 m/s for 20 seconds. Homogenates were centrifuged at 221.300×g for 50 min. The resulting high speed supernatants were then transferred to fresh eppendorf tubes. Nine parts of supernatant were neutralized with 1 part 0.5 M Tris-HCl pH 6.8 and used to quantify Aβtotal and Aβ42.
To quantify the amount of Aβtotal and Aβ42 in the soluble fraction of the brain homogenates, Enzyme-Linked-Immunosorbent-Assays were used. Briefly, the standards (a dilution of synthetic Aβ1-40 and Aβ-42, Bachem) were prepared in 1.5 ml Eppendorf tube in Ultraculture, with final concentrations ranging from 10000 to 0.3 pg/ml. The samples and standards were co-incubated with HRPO-labelled N-terminal antibody for Aβ42 detection and with the biotinylated mid-domain antibody 4G8 for Aβtotal detection. 50 μl of conjugate/sample or conjugate/standards mixtures were then added to the antibody-coated plate (the capture antibodies selectively recognize the C-terminal end of Aβ42, antibody JRF/cAB42/26, for Aβ42 detection and the N-terminus of Aβ, antibody JRF/rAβ/2, for Aβtotal detection). The plate was allowed to incubate overnight at 4° C. in order to allow formation of the antibody-amyloid complex. Following this incubation and subsequent wash steps the ELISA for Aβ42 quantification was finished by addition of Quanta Blu fluorogenic peroxidase substrate according to the manufacturer's instructions (Pierce Corp., Rockford, Il). A reading was performed after 10 to 15 min (excitation 320 nm/emission 420 nm).
For Aβtotal detection, a Streptavidine-Peroxidase-Conjugate was added, followed 60 min later by an addional wash step and addition of Quanta Blu fluorogenic peroxidase substrate according to the manufacturer's instructions (Pierce Corp., Rockford, Il). A reading was performed after 10 to 15 min (excitation 320 nm/emission 420 nm). […]

[5] = untreated animals (Ctrl) set at 100, read-out: Aβ42 (% vs Ctrl) _Mean
[6] = untreated animals (Ctrl) set at 100, read-out: Aβtotal (% vs Ctrl)_Mean

| SMILES | concentration at 4 h ([1]; brain, read-out: Brain) [ng/g] | concentration at 4 h ([1]; plasma, read-out: Plasma) [ng/mL] | melting point [°C] | turnover of the parent compound (% reduction in concentration vs control incubations), human liver microsomes [2] [%] | turnover of the parent compound (% reduction in concentration vs control incubations), mouse liver microsomes [3] [%] | response vs control in vivo at 30 mg/kg [4, 5] [%] | response vs control in vivo at 30 mg/kg [4, 6] [%] |
| --- | --- | --- | --- | --- | --- | --- | --- |
| COc1cc(Nc2nc(Oc3ccccc3Cl)n(C(C)C)n2)ccc1-n1cnc(C)n1 [Compound 3] | 8510 | 7740 | – | – | – | – | – |
| COc1cc(Nc2nc(Oc3cccc(C(F)(F)F)c3)n(C(C)C)n2)ccc1-n1cnc(C)n1 [Compound 5] | 1630 | 1630 | 166.6 | – | – | – | – |
| COc1cc(Nc2nc(-c3ccc(F)cc3)n(C)n2)ccc1-n1cnc(C)c1 [Compound 10] | 4640 | 2700 | 247.1 | 14 | 10 | 68 | 110 |
| COc1cc(Nc2nc(-c3cccc(C(F)(F)F)c3)n(C(C)C)n2)ccc1-n1cnc(C)c1 [Compound 46] | – | – | 186.8 | – | – | 61 | 98 |
| COc1cc(Nc2nc(Oc3ccccc3Cl)n(C(C)C)n2)ccc1-n1cnc(C)c1 [Compound 52] | – | – | 167.1 | – | – | 45 | 112 |
| COc1cc(Nc2nc(N3CCCC(C(F)(F)F)C3)n(C(C)C)n2)ccc1-n1cnc(C)c1 (stereo not drawn) [Compound 54] | – | – | 173 | – | – | 46 | 88 |
| Cc1cc(-c2ccc(Nc3nc(Oc4ccccc4Cl)n(C(C)C)n3)cc2)ccn1 [Compound 140] | – | – | 142.5 | – | – | 83 | 86 |
| COc1cc(Nc2nnc(-c3ccc(F)cc3)[nH]2)ccc1-n1cnc(C)c1 [Compound A, reference compound] | 0 | 0 | – | 64 | 22 | 101 | 106 |
